Experiment [1] relates to Phosphorylated Ribosomal Protein S6 (RPS6). As to the kind of experiment: THP-1 RPS6 ELISA Assay. The following applies: THP-1 cells, read-out: PI3Kγ_THP1_RPS6_ELISA IC50. The experiment is classed as cell-based, Human. In a few lines:
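IC50 values come from a curve of percent inhibition against log compound concentration, using phospho-RPS6 ELISA (450 nm) on THP-1 lysates. Cells were serum-starved overnight, exposed to compound for 2 h at 37 °C, then challenged 15 min with 10 nM MCP-1.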
On the technique in general: ELISA stands for enzyme-linked immunosorbent assay.

Experiment [2] has as its target PI3Kγ (p110γ) Recombinant Human Protein (Homo sapiens (Human), UniProt P48736). The experiment is described as follows: PI3K-γ Scintillation Proximity Assay. The following applies: read-out: PI3Kγ IC50. Format: biochemical. In a few lines: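 Radiometric SPA readout: […] bound to WGA beads after overnight shaking, IC50 derived from % activity of DMSO control. Reaction used human p110γ, 2 μM ATP, 20 μM PIP2, pH 6.7 MOPS buffer with MgCl2, DTT, CHAPS, 2% DMSO, room temperature.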
In general terms: Scintillation proximity formats need no separation of bound from free tracer.

Experiment [3] concerns the target PI3Kδ (p110δ/p85α) Recombinant Human Protein (Homo sapiens (Human), UniProt O00329). The experiment is described as follows: PI3Kδ Scintillation Proximity Assay. The experiment is classed as biochemical. In a few lines:
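Assay conditions: 2 μM ATP (radiolabelled), 20 μM PIP2, 3.4 nM PI3Kδ, 20 mM MOPS pH 6.7 with 10 mM MgCl2, 5 mM DTT, 0.03% CHAPS, 2 h at room temperature. Signal from bead-captured 33P product; IC50 versus solvent control.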

Each structure is given as a SMILES string. Where a name gives a salt, the structure may show the parent alone. Read-outs that look alike come from different tables or passages of the source.

Data on 22 compounds can be found in patent US10479795B2 (Incyte Corporation, priority 2016, dated 2019).

Sequence of PI3Kγ (p110γ) Recombinant Human Protein (P48736 whole entry): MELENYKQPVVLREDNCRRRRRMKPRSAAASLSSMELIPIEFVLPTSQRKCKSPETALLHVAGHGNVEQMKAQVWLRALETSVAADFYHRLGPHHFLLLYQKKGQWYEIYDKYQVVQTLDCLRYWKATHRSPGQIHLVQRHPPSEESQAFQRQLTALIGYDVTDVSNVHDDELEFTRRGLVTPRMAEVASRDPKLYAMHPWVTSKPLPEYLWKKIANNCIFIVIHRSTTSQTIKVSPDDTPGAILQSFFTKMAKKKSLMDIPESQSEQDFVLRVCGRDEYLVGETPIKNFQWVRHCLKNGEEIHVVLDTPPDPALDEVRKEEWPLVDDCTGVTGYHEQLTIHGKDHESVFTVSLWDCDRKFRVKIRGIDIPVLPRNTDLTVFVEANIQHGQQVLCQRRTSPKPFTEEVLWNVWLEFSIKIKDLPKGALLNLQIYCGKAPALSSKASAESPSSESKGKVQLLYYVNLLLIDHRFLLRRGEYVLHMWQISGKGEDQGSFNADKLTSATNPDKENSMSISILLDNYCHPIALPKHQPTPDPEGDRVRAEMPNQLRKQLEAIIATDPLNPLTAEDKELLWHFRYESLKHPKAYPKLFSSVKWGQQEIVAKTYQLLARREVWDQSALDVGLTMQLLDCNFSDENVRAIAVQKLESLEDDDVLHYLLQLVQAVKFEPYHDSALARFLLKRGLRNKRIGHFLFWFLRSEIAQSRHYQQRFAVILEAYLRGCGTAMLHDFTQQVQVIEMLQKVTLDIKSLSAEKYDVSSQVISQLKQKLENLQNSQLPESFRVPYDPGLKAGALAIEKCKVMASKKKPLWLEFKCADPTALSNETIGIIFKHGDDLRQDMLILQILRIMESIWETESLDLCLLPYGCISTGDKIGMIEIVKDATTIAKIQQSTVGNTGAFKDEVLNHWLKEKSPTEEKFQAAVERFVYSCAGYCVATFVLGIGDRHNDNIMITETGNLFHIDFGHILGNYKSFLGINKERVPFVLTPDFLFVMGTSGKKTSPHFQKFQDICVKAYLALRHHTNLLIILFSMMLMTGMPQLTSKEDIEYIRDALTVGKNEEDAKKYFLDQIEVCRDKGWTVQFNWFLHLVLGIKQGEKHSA
Sequence of PI3Kδ (p110δ/p85α) Recombinant Human Protein (O00329 whole entry): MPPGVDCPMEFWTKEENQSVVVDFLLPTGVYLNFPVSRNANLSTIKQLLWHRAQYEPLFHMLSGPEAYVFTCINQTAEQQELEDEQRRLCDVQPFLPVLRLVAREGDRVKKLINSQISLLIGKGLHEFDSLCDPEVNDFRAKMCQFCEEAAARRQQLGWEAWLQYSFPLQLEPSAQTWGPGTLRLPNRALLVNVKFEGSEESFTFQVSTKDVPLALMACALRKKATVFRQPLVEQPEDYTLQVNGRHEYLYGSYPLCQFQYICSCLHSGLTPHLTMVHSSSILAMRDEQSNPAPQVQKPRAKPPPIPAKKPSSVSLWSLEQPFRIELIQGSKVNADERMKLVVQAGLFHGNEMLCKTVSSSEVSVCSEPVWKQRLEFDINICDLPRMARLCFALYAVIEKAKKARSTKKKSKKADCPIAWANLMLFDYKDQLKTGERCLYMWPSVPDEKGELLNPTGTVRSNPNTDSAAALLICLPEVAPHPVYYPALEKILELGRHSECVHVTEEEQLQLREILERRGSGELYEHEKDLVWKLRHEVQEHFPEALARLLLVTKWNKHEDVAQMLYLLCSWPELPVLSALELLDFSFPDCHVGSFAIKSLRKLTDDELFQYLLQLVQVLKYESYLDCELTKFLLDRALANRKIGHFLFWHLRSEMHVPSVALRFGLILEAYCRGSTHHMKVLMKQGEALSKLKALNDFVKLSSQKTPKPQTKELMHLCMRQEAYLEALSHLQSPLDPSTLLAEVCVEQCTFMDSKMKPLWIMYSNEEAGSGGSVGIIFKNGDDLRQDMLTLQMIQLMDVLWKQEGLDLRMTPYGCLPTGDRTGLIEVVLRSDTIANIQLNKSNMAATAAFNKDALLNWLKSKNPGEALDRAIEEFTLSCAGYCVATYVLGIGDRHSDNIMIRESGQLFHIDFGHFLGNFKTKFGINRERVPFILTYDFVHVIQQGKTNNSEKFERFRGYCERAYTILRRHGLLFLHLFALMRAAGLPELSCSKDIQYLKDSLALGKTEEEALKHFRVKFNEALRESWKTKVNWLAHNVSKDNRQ
Sequence of PI3Kδ (p110δ/p85α) Recombinant Human Protein (P27986 whole entry partner): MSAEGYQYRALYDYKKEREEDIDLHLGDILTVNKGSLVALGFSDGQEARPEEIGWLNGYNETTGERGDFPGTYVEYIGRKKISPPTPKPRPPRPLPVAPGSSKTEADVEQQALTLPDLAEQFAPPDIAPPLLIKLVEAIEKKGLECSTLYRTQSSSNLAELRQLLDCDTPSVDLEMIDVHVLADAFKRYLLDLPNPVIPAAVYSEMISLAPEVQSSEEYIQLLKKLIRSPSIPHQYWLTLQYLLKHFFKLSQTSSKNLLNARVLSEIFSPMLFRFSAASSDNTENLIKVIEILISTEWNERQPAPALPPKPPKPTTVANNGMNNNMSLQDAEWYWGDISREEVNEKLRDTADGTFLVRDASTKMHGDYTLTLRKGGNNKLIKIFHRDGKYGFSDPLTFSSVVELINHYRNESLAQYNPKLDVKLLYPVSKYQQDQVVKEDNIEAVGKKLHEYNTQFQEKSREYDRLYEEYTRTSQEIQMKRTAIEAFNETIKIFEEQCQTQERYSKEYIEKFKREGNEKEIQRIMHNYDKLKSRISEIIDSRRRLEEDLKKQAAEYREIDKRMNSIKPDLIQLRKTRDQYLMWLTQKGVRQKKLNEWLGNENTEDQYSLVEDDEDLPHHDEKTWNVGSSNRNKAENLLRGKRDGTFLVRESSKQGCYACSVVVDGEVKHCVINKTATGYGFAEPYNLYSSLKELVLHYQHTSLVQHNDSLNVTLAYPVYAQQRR

On to `Cc1nc2c(N)ncnn2c1-c1cccc(S(=O)(=O)NC23CCC(C#N)(C2)C3)c1` [Example 258, 3-(4-Amino-6-methylimidazo[2,1-f][1,2,4]triazin-7-yl)-N-(4-cyanobicyclo[2.1.1]hexan-1-yl)benzenesulfonamide trifluoroacetate salt], for which the IC50 (commonly the point on the concentration scale where inhibition reaches its midpoint) was 500 to 1000 nM in experiment [1] (Homo sapiens), under 100 nM in experiment [2] and 100 to 500 nM in experiment [3].
As to `Cc1ccc(S(=O)(=O)N[C@@H](C)CO)cc1-c1cnc2c(N)nc(C(F)(F)F)nn12` [Example 249, (S)-3-(4-Amino-2-(trifluoromethyl)imidazo[2,1-f][1,2,4]triazin-7-yl)-N-(1-hydroxypropan-2-yl)-4-methylbenzenesulfonamide], the IC50 in experiment [1] (Homo sapiens) is 100 to 500 nM; in experiment [2] it was under 100 nM; in experiment [3] it was 100 to 500 nM.
With `Cc1ccc(S(=O)(=O)N[C@H]2C[C@](C)(C#N)C2)cc1-c1cnc2c(N)ncnn12` [Example 87, 3-(4-Aminoimidazo[1,2-f][1,2,4]triazin-7-yl)-N-((1r,3r)-3-cyano-3-methylcyclobutyl)-4-methylbenzenesulfonamide trifluoroacetate salt], the results for the IC50 in experiment [1], in experiment [2] and in experiment [3] were 100 to 500 nM, under 100 nM and 100 to 500 nM, respectively.
As to `[2H]C([2H])([2H])c1ccc(S(=O)(=O)NC23COC(C)(C2)C3)cc1-c1cnc2c(N)nc(C)nn12` [Example 426, 3-(4-Amino-2-methylimidazo[1,2-f][1,2,4]triazin-7-yl)-4-trideuteromethyl-N-(1-methyl-2-oxabicyclo[2.1.1]hexan-4-yl)benzenesulfonamide trifluoroacetate salt], the IC50 in experiment [1] (Homo sapiens) was 100 to 500 nM; in experiment [2], under 100 nM; in experiment [3], 100 to 500 nM.
For the compound `[2H]C([2H])([2H])c1ccc(S(=O)(=O)N[C@H]2CC[C@H](CC#N)OC2)cc1-c1cnc2c(N)nc(C(F)(F)F)cn12` [Example 406, 3-(8-amino-6-(trifluoromethyl)imidazo[1,2-a]pyrazin-3-yl)-N-((3S,6R)-6-(cyanomethyl)tetrahydro-2H-pyran-3-yl)-4-(methyl-d3)benzenesulfonamide], the IC50 in experiment [1] (Homo sapiens), in experiment [2] and in experiment [3] was under 100 nM in each case.
Turning to `Cc1ccc(S(=O)(=O)NC23CC(CF)(C2)C3)cc1-c1cnc2c(N)nc(C(F)(F)F)cn12` [Example 286, 3-(8-Amino-6-(trifluoromethyl)imidazo[1,2-a]pyrazin-3-yl)-N-(3-(fluoromethyl)bicyclo[1.1.1]pentan-1-yl)-4-methylbenzenesulfonamide trifluoroacetate salt], the IC50 in experiment [1] (Homo sapiens) is under 100 nM; in experiment [2] it was under 100 nM; in experiment [3], 100 to 500 nM.
As to `Cc1ccc(S(=O)(=O)CCC(C)O)cc1-c1cnc2c(N)nc(C(F)(F)F)cn12` (stereo not drawn) [Example 494, 4-((3-(8-Amino-6-(trifluoromethyl)imidazo[1,2-a]pyrazin-3-yl)-4-methylphenyl)sulfonyl)butan-2-ol], the results for the IC50 in experiment [1] (Homo sapiens), in experiment [2] and in experiment [3] were over 1000 nM, under 100 nM and 500 to 2000 nM, respectively.
Take `Cc1ccc(S(=O)(=O)NC2CCC(F)(F)CC2)cc1-c1cnc2c(N)ncnn12` [Example 122, 3-(4-aminoimidazo[2,1-f][1,2,4]triazin-7-yl)-N-(4,4-difluorocyclohexyl)-4-methylbenzenesulfonamide]: the IC50 in experiment [1] (Homo sapiens) was 100 to 500 nM; in experiment [2] it was under 100 nM; in experiment [3], 500 to 2000 nM.
Regarding `Nc1nc(C(F)(F)F)cn2c(-c3cccc(S(=O)(=O)NC45CCC(CO)(C4)C5)c3)cnc12` [Example 394, 3-(8-Amino-6-(trifluoromethyl)imidazo[1,2-a]pyrazin-3-yl)-N-(4-(hydroxymethyl)bicyclo[2.1.1]hexan-1-yl)benzenesulfonamide trifluoroacetate salt], the IC50 was 100 to 500 nM in experiment [1] (Homo sapiens), under 100 nM in experiment [2] and 100 to 500 nM in experiment [3].
As for `Cc1ccc(S(=O)(=O)NC23CC(C(C)(C)O)(C2)C3)cc1-c1cnc2c(N)ncnn12` [Example 93, 3-(4-Aminoimidazo[1,2-f][1,2,4]triazin-7-yl)-N-(3-(2-hydroxypropan-2-yl)bicyclo[1.1.1]pentan-1-yl)-4-methylbenzenesulfonamide trifluoroacetate slt], the IC50 was 100 to 500 nM in experiment [1], under 100 nM in experiment [2] and 100 to 500 nM in experiment [3].
For the compound `Cc1ccc(S(=O)(=O)N2CC(O)(C3CC3)C2)cc1-c1cnc2c(N)ncnn12` [Example 144, 1-((3-(4-aminoimidazo[2,1-f][1,2,4]triazin-7-yl)-4-methylphenyl)sulfonyl)-3-cyclopropylazetidin-3-ol, TFA], the values for the IC50 in experiment [1], in experiment [2] and in experiment [3] were 500 to 1000 nM, under 100 nM and 100 to 500 nM, respectively.
Regarding `Cc1ccc(S(=O)(=O)NCC(C)(C)O)cc1-c1cnc2c(N)nc(C(F)(F)F)nn12` [Example 317, 3-(4-Amino-2-(trifluoromethyl)imidazo[1,2-f][1,2,4]triazin-7-yl)-N-(2-hydroxy-2-methylpropyl)-4-methylbenzenesulfonamide trifluoroacetate salt], the IC50 is under 100 nM in experiment [1], under 100 nM in experiment [2] and 100 to 500 nM in experiment [3].
Regarding `Cc1ccc(S(=O)(=O)NC23CCC(CO)(C2)C3)cc1-c1cnc2c(N)nc(C(F)(F)F)nn12` [Example 328, 3-(4-Amino-2-(trifluoromethyl)imidazo[1,2-f][1,2,4]triazin-7-yl)-N-(4-(hydroxymethyl)bicyclo[2.1.1]hexan-1-yl)-4-methylbenzenesulfonamide trifluoroacetate salt], the figures for the IC50 in experiment [1], in experiment [2] and in experiment [3] were under 100 nM, under 100 nM and 100 to 500 nM, respectively.
On to `Cc1ccc(S(=O)(=O)NC23CC(F)(C2)C3)cc1-c1cnc2c(N)nc(C(F)(F)F)cn12` [Example 285, 3-(8-Amino-6-(trifluoromethyl)imidazo[1,2-a]pyrazin-3-yl)-N-(3-fluorobicyclo[1.1.1]pentan-1-yl)-4-methylbenzenesulfonamide trifluoroacetate salt], for which the IC50 in experiment [1] (Homo sapiens) was 100 to 500 nM; in experiment [2] it was under 100 nM; in experiment [3] it was 100 to 500 nM.
Consider `Cc1ccc(S(=O)(=O)NC2CCOCC2)cc1-c1cnc2c(N)nccn12` [Example 49, 3-(8-Aminoimidazo[1,2-a]pyrazin-3-yl)-4-methyl-N-(tetrahydro-2H-pyran-4-yl)benzenesulfonamide], for which the IC50 in experiment [1] (Homo sapiens) is over 1000 nM; in experiment [2] it was under 100 nM; in experiment [3], 500 to 2000 nM.
On to `COc1cccc(-c2cn3c(-c4cc(S(=O)(=O)N[C@H]5CC[C@H](O)CC5)ccc4C)cnc3c(N)n2)c1F` [Example 30, 3-[8-Amino-6-(2-fluoro-3-methoxyphenyl)imidazo[1,2-a]pyrazin-3-yl]-N-(trans-4-hydroxycyclohexyl)-4-methylbenzenesulfonamide], for which the IC50 in experiment [1] (Homo sapiens), in experiment [2] and in experiment [3] was under 100 nM in each case.
For the compound `Cc1ccc(S(=O)(=O)N[C@H]2CC[C@H](N)CC2)cc1-c1cnc2c(N)ncnn12` [Example 73, bis-hydrochloride], the IC50 is over 1000 nM in experiment [1] (Homo sapiens), under 100 nM in experiment [2] and 500 to 2000 nM in experiment [3].
Take `O=C(O)C(F)(F)F.[2H]C([2H])([2H])c1ccc(S(=O)(=O)NC23CC(CO)(C2)C3)cc1-c1cnc2c(N)nc(C(F)(F)F)cn12` [Example 391, 3-(8-Amino-6-(trifluoromethyl)imidazo[1,2-a]pyrazin-3-yl)-N-(3-(hydroxymethyl)bicyclo[1.1.1]pentan-1-yl)-4-(methyl-d3)benzenesulfonamide trifluoroacetate salt]: the IC50 in experiment [1] (Homo sapiens) is under 100 nM; in experiment [2], under 100 nM; in experiment [3] it was 100 to 500 nM.
In the case of `Cc1ccc(S(=O)(=O)NC23CC(c4nccs4)(C2)C3)cc1-c1cnc2c(N)ncnn12` [Example 114, 3-(4-Aminoimidazo[1,2-f][1,2,4]triazin-7-yl)-4-methyl-N-(3-(thiazol-2-yl)bicyclo[1.1.1]pentan-1-yl)benzenesulfonamide trifluoroacetate salt], the results for the IC50 in experiment [1], in experiment [2] and in experiment [3] were 100 to 500 nM, under 100 nM and 100 to 500 nM, respectively.
Regarding `COc1cn[nH]c1-c1cn2c(-c3cc(S(C)(=O)=O)ccc3C)cnc2c(N)n1` [Example 491, 6-(4-Methoxy-1H-pyrazol-5-yl)-3-(2-methyl-5-(methylsulfonyl)phenyl)imidazo[1,2-a]pyrazin-8-amine trifluoroacetate], the IC50 was 100 to 500 nM in experiment [1] (Homo sapiens), under 100 nM in experiment [2] and 100 to 500 nM in experiment [3].
Regarding `Cc1ccc(S(=O)(=O)NC23COC(C)(C2)C3)cc1-c1cnc2c(N)ncnn12` [Example 424, 3-(4-Aminoimidazo[1,2-f][1,2,4]triazin-7-yl)-4-methyl-N-(1-methyl-2-oxabicyclo[2.1.1]hexan-4-yl)benzenesulfonamide trifluoroacetate salt], the IC50 in experiment [1] (Homo sapiens) is 100 to 500 nM; in experiment [2] it was under 100 nM; in experiment [3], 100 to 500 nM.
Consider `Cc1ccc(S(=O)(=O)CC2CCOCC2)cc1-c1cnc2c(N)ncnn12` [Example 492, 7-(2-Methyl-5-(((tetrahydro-2H-pyran-4-yl)methyl)sulfonyl)phenyl)imidazo[2,1-f][1,2,4]triazin-4-amine trifluoroacetate], for which the results for the IC50 in experiment [1] (Homo sapiens), in experiment [2] and in experiment [3] were 500 to 1000 nM, under 100 nM and 500 to 2000 nM, respectively.
